According to PMC11126915, “iATPSnFR2: A high-dynamic-range fluorescent sensor for monitoring intracellular ATP” (Proceedings of the National Academy of Sciences of the …, 2024):

Columns and labels:
LMTK- cells = test: green:red ratio imaging of fibroblasts expressing iATPSnFR2-HaloTag variants; type: cell-based, mouse; details: 10 mM 2dOG replacing 10 mM glucose
Method: (§1) Rho° and the parental LMTK- cells were maintained in T-75 flasks with Dulbecco’s Modified Eagle's Medium (DMEM) + 10% Fetal Bovine Serum (FBS) + 1 mM pyruvate + 5 µM uridine. Two days prior to transfection, they were split into separate rows of a 24-well plate (half Rho°, half LMTK) at 0.6 and 0.1 million cells per well, respectively. Cells were transfected with iATPSnFR2.HaloTag variants by lipofectamine (0.5 µg DNA + 2 µL lipofectamine 2,000 per well) for 4 to 6 h in DMEM lacking FBS or antibiotics. Transfection medium was replaced with fresh DMEM + 10% FBS + penicillin/streptomycin overnight. Cells were labeled with JFX650 HaloTag ligand by adding the fluorophore to 100 nM for an hour. Cells were washed with Mammalian Cell Imaging Buffer and imaged in a Cytation 5 imaging reader (BioTek) over the course of about 2 h. After about 20 min of imaging to establish a baseline fluorescence, the culture plate was removed from the instrument, and buffer was replaced with the query buffer. The equilibration buffer contained 10 mM glucose, and the query buffers contained 10 mM 2dOG.
(§2) Images were background subtracted and aligned for movement artifacts with the Gen5 software package that controls the Cytation 5 instrument. Images were assembled as TIF stacks and imported into ImageJ. […] Those ROIs were used to determine the ratio of green to red fluorescence for each well. […]

Rho° cells = test: as above; type: cell-based, mouse; details: 10 mM 2dOG replacing 10 mM glucose
Method: as §1, §2

iATPSnFR2.S29W.A95K [1] = system: T1, iATPSnFR2.S29W.A95K; test: Equilibrium fluorescence titration of 0.2 µM purified sensor HaloTag-JFX650 conjugate with ATP and ADP head-to-head (ex 485 nm, em 535 nm) in Mammalian Cell Imaging Buffer (20 mM HEPES, 119 mM NaCl, 2.5 mM KCl, 2 mM MgCl2, 2 mM CaCl2, pH 7.2).; details: n = 3; read-out: Binding curve fits, in µM, for ATP and ADP (affinity)
T1 construct: epsilon subunit residues 1-109, linker 1 VLVG, cpSFGFP, linker 2 ICV, residues 110-129, C-terminal HaloTag conjugated to JFX650
Method: (§3) Purified protein was mixed with 1.1 molar equivalents of JFX650 HaloTag ligand and incubated at room temperature for 1 h and then at 4 °C overnight. Excess HaloTag ligand was removed by gel filtration on a PD-10 column (GE Life Sciences) and reconcentrated by ultrafiltration.
(§4) All in vitro assays were performed in Mammalian Cell Imaging Buffer unless otherwise noted. iATPSnFR2 equilibrium measurements (affinity, specificity, pH) were performed with 0.2 µM protein in a Tecan Spark fluorimeter with 20 nm bandpass windows and excitation at 485 nm and emission at 535 nm.
(§5) Supplementary Figure 1a. In vitro characterization: ATP & ADP affinity. Three variants of iATPSnFR2.HaloTag-JFX650 titrated with ATP (black) and ADP (grey), head-to-head. iATPSnFR2.S29W.A95K (left); iATPSnFR2.A95K (center); iATPSnFR2.A95A.A119L (right). Binding curve fits, in µM, for ATP and ADP are S29W.A95K: 4 µM, 400 µM. A95K: 16 µM, 780 µM.
(§6) A95A.A119L: 530 µM, 5300 µM. Error bars are s.d. of three technical replicates. […]

iATPSnFR2.A95K [2] = system: T2, iATPSnFR2.A95K; test: as above; details: n = 3; read-out: Binding curve fits, in µM, for ATP and ADP (affinity)
T2 construct: epsilon subunit residues 1-109, linker 1 VLVG, cpSFGFP, linker 2 ICV, residues 110-129, C-terminal HaloTag conjugated to JFX650
Method: as §3, §4, §5, §6

iATPSnFR2.A95A.A119L [3] = system: T3, iATPSnFR2.A95A.A119L; test: as above; details: n = 3; read-out: Binding curve fits, in µM, for ATP and ADP (affinity)
T3 construct: epsilon subunit residues 1-109, linker 1 VLVG, cpSFGFP, linker 2 ICV, residues 110-129, C-terminal HaloTag conjugated to JFX650
Method: as §3, §4, §5, §6

iATPSnFR2.S29W.A95K [4] = system: T1, iATPSnFR2.S29W.A95K; test: Separate head-to-head equilibrium fluorescence titration of 0.2 µM purified sensor HaloTag-JFX650 conjugate with ATP and other nucleoside triphosphates (ex 485 nm, em 535 nm) in Mammalian Cell Imaging Buffer, pH 7.2.; details: n = 3; read-out: Binding curve fits, in µM, for ATP, CTP, GTP (binding specificity)
Method: as §3, §4
(§7) [NTP], µM [NTP], µM [NTP], µM
(§8) Supplementary Figure 1d. In vitro characterization: binding specificity. iATPSnFR2 affinity for ATP
(§9) and other nucleoside triphosphates. Three variants of iATPSnFR2.HaloTag-JFX650 titrated with ATP
(§10) and other NTPs, head-to-head. S29W.A95K (left); A95K (center); A95A.A119L (right). ATP (black),
(§11) CTP (cyan), GTP (grey), TTP (purple). Binding curve fits, in µM, for ATP, CTP, GTP are S29W.A95K:
(§12) Error bars are s.d. of three technical replicates.

iATPSnFR2.A95K [5] = system: T2, iATPSnFR2.A95K; test: as above; details: n = 3; read-out: Binding curve fits, in µM, for ATP, CTP, GTP (binding specificity)
Method: as §3, §4, §7, §8, §9, §10, §11, §12

iATPSnFR2.A95A.A119L [6] = system: T3, iATPSnFR2.A95A.A119L; test: as above; details: n = 3; read-out: Binding curve fits, in µM, for ATP, CTP, GTP (binding specificity)
Method: as §3, §4, §7, §8, §9, §10, §11, §12

[7] = system: axonal mitochondria of primary hippocampal neurons; test: mitochondrial matrix ATP imaging in axonal mitochondria of primary neurons; type: cell-based, Sprague-Dawley rats; details: 10 µM, perfusion; KA in 5 mM glucose; oligomycin in 1.25 mM lactate + 1.25 mM pyruvate
Source text: iATPSnFR2.HaloTag variants were subcloned by restriction digest into an AAV vector with a CAG promoter via BglII/PstI digest from the bacterial expression vector. The pAAV.CAG vector includes an extra serine after the initial methionine and lacks a polyhistidine tag. To target the sensor to the mitochondrial matrix, four repeats of COX8(mito) leader sequence ([…]) separated by spacer (IHSLPPEGPW) were introduced at the N terminus of iAPTSnFR2(A95A/A119L). HaloTag was incorporated at the N-terminal of iATPSnFR2.A95A.A119L separated by a linker (LQSTGSGNAVGQDTQER). […]
(§13) Coverslips were loaded onto a custom chamber ([32]), mounted on a Zeiss inverted microscope and perfused at ~100 µL min^–1 with Tyrode’s solution containing: 119 mM NaCl, 2.5 mM KCl, 5 mM glucose, 50 mM HEPES, 2 mM CaCl2, 2 mM MgCl2, 50 µM DL-2-amino-5-phosphonovaleric acid (AP5), and 10 µM 6-cyano-7-nitroquinoxaline-2,3-dione (CNQX), adjusted to pH 7.4. […] Fluorescence was stimulated with OBIS 488 nm LX or OBIS 637 nm LS lasers (Coherent) passing through a laser speckle reducer (LSR 3005 at 12° diffusion angle, Optotune). […]
Time series of imaging pairs (HaloTag and iATPSnFR2) were split into two independent image series using a custom-written Fiji routine to facilitate analysis. […] Synaptic boutons signals were analyzed using homemade script routines in Igor-pro v6.3.7.2 (WaveMetrics, Lake Oswego, OR, USA). […]

[8] = system: nerve terminals of dissociated hippocampal neurons; test: ATP depletion in nerve terminals during AP firing; type: cell-based, Sprague-Dawley rats; details: 5 mM glucose + 10 µM KA, 6 s at 50 Hz
Method: (§14) Primary neuronal cultures were prepared as previously described ([31]). Hippocampal CA1 to CA3 regions were dissected, dissociated, and plated onto poly-L-ornithine-coated coverslips. Plating media consisted of the minimal essential medium, 0.5% glucose, insulin (0.024 g/L), transferrin ([…]), GlutaMAX 1%, N-21 (2%), and fetal bovine serum (10%). After 1 to 3 days in vitro (DIV), cells were fed and maintained in media with the following modifications: cytosine β-D-arabinofuranoside (4 µM) and FBS 5%. Cultures were incubated at 37 °C in a 95% air/5% CO2 incubator. Calcium phosphate–mediated gene transfer was performed on DIV 6 to 8, and neurons were used for experiments on DIV 14 to 21.
as §13

[9] = system: synaptic boutons of hippocampal neurons; test: spontaneous ATP depletion in synaptic boutons (synaptophysin-targeted iATPSnFR2); type: cell-based, Sprague-Dawley rats; details: 5 mM glucose + 10 µM KA + 0.3 µM TTX, iATPSnFR2.A95A.A119L.HaloTag-JFX650
Method: as §14, §13

O=CC[C@@H](O)[C@H](O)[C@H](O)CO [2dOG, 2-deoxyglucose] was tested, and the “effect on green fluorescence of iATPSnFR2 variants” value (LMTK- cells) was “decreased fluorescence only in those expressing the weakest affinity variant” and the “effect on green fluorescence of iATPSnFR2 variants” value (Rho° cells) was “green fluorescence rapidly dropped”.
With Nc1ncnc2c1ncn2[C@@H]1O[C@H](COP(=O)(O)OP(=O)(O)O)[C@@H](O)[C@H]1O [ADP, adenosine diphosphate] the Kd (iATPSnFR2.S29W.A95K [1]) was 400 µM, the Kd (iATPSnFR2.A95K [2]) was 780 µM and the Kd (iATPSnFR2.A95A.A119L [3]) was 5300 µM.
Work on Nc1ncnc2c1ncn2[C@@H]1O[C@H](COP(=O)(O)OP(=O)(O)OP(=O)(O)O)[C@@H](O)[C@H]1O [ATP, adenosine triphosphate] yielded a Kd (iATPSnFR2.S29W.A95K [4]) of 20 µM, a Kd (iATPSnFR2.A95K [5]) of 30 µM and a Kd (iATPSnFR2.A95A.A119L [6]) of 750 µM. The Kd (iATPSnFR2.S29W.A95K [1]) was 4 µM, the Kd (iATPSnFR2.A95K [2]) was 16 µM and the Kd (iATPSnFR2.A95A.A119L [3]) was 530 µM.
In the case of Nc1ccn([C@@H]2O[C@H](COP(=O)(O)OP(=O)(O)OP(=O)(O)O)[C@@H](O)[C@H]2O)c(=O)n1 [CTP, cytidine triphosphate], the Kd (iATPSnFR2.S29W.A95K [4]) is reported as 50 µM, the Kd (iATPSnFR2.A95K [5]) is reported as 100 µM and the Kd (iATPSnFR2.A95A.A119L [6]) is reported as about 10000 µM.
Nc1nc2c(ncn2[C@@H]2O[C@H](COP(=O)(O)OP(=O)(O)OP(=O)(O)O)[C@@H](O)[C@H]2O)c(=O)[nH]1 [GTP, guanosine triphosphate] showed a Kd (iATPSnFR2.S29W.A95K [4]) of 430 µM, a Kd (iATPSnFR2.A95K [5]) of 1500 µM and a Kd (iATPSnFR2.A95A.A119L [6]) of about 10000 µM.
For CC(C)[C@H]1CC[C@@]2(CO2)[C@H]2C(=O)OCC(C(=O)O)=C[C@H]12 [KA, koningic acid], the “effect on mitochondrial ATP signal (mito-iATPSnFR2.HaloTag)” value [7] was “rapid drop in the ATP signal”, the “effect on iATPSnFR2 fluorescence during AP stimulation” value [8] was “even greater decrease in fluorescence that did not recover” and the “effect on average green to red fluorescence ratio in boutons” value [9] was “gradually declined over a 5 to 10 min period”.
For CC[C@H]1/C=C/C=C/C[C@@H](C)[C@H](O)[C@@](C)(O)C(=O)[C@@H](C)[C@H](O)[C@@H](C)C(=O)[C@@H](C)[C@H](O)[C@@H](C)/C=C/C(=O)O[C@@H]2[C@H](C)[C@H](CC1)O[C@]1(CC[C@H](C)[C@H](C[C@@H](C)O)O1)[C@H]2C [oligomycin], the “effect on mitochondrial ATP signal (mito-iATPSnFR2.HaloTag)” value [7] was “further collapse of the ATP signal”.
